Values after ≈ are worked out from the molar mass of the structure shown.
Biological target: intestinal α-glucosidase
Test: sucrose hydrolysis, glucose oxidase-peroxidase, absorbance […] nm
Assay type: biochemical
Details: phosphate buffer pH 7.5, 20 min pre-incubation at 37 °C

- IC50: 52.5 ± 2.67 µg/mL (≈ 81.3 µM)
SMILES: C[C@H]1O[C@H](O[C@H]2[C@H](O)[C@@H](O)[C@@H](O[C@H]3[C@H](O)[C@@H](O)C(O)O[C@@H]3CO)O[C@@H]2CO)[C@H](O)[C@@H](O)[C@@H]1N[C@H]1C=C(CO)[C@@H](O)[C@H](O)[C@H]1O (stereo partly shown) [acarbose]

Reference: article PMC10492212 (Journal of Ayurveda and Integrative Medicine, 2023)
